Patent publication US5480892A, “(N-phthalimidoalkyl)piperidines” (The Du Pont Merck Pharmaceutical Company, priority 1994, dated 1996)
Read-outs that look alike come from different tables or passages of the source.

Experiments:
[1] = test system: isolation-induced aggression in mice; test: Isolation-Induced Aggression in Mice; type: in vivo, mouse (male Balb/c); details: for ED50: Mus musculus, po, 0.25 h, mice, p.o., 15 min after dosing, read-out: Inhibition of Isolation-induced Aggression (ED50 class); for inhibiting the isolation-induced aggressive behavior: statement on Table II
Sigma receptor = target: T1, Sigma receptor (Cavia porcellus, UniProt Q60492); test: Sigma Receptor Binding Assay; type: guinea pig (male Hartley), brain membranes
T1 construct: Brain membranes were prepared by the method of Tam; from tissue; host or cells: guinea pig whole brain membranes

Dopamine (D-2) receptor = target: T2, Dopamine (D-2) receptor (Cavia porcellus, UniProt H0VE83); test: Dopamine Receptor Binding; type: guinea pig, striatum membranes
T2 construct: Membranes were prepared from guinea pig striatum; from tissue; host or cells: guinea pig striatum membranes

[2] = 1 nM (+)-[3H]SKF 10,047, guinea pig brain membranes, pH 7.4, 45 min room temperature, read-out: Receptor Binding Affinity Sigma (Ki class)
[3] = 0.15 nM [3H]spiperone, guinea pig striatum, pH 7.7, 15 min 37° C., read-out: Receptor Binding Affinity Dopamine (D-2) (Ki class)

T1 sequence (Q60492 whole entry): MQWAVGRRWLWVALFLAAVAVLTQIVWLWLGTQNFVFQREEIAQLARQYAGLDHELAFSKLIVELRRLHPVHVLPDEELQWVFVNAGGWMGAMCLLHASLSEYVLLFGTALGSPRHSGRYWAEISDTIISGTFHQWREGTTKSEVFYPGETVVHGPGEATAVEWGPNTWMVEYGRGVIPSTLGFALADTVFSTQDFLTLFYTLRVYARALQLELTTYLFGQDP
T2 sequence (H0VE83 1-446): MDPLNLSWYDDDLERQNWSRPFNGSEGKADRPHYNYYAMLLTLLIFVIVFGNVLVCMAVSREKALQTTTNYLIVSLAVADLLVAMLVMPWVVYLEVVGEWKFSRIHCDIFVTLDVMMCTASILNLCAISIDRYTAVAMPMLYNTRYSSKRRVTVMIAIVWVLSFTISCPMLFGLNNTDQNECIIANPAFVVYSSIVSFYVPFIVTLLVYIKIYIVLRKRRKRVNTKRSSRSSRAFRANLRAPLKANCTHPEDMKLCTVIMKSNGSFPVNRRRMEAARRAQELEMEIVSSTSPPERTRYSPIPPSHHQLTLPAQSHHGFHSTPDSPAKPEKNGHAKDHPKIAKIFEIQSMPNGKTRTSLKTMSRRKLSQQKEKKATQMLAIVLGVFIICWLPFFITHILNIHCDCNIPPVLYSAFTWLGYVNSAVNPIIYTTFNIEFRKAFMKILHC

| SMILES | Ki (Sigma receptor; [2]) | Ki (Dopamine (D-2) receptor; [3]) | ED50 [1] | inhibiting the isolation-induced aggressive behavior [1] | Ki (Sigma receptor) | Ki (Dopamine (D-2) receptor) |
| --- | --- | --- | --- | --- | --- | --- |
| O=C1[C@H]2CCCC[C@H]2C(=O)N1CC1CCN(CC2CCCCC2)CC1 [Example 15] | 0.001 to 0.03 µM | > 0.5 µM | – | potent activities | – | – |
| O=C1c2ccccc2C(=O)N1CC1CCN(Cc2ccccc2)CC1 [Example 34] | 0.001 to 0.03 µM | > 0.5 µM | 11 to 20 mg/kg | – | – | – |
| O=C1C2CC(O)C(O)CC2C(=O)N1CC1CCN(CCc2ccccc2)CC1 (centres unmarked) [Example 63] | > 0.5 µM | > 0.5 µM | – | – | – | – |
| CC12CCCCC1(C)C(=O)N(CC1CCN(CCc3ccccc3)CC1)C2=O (centres unmarked) [Example 65] | 0.031 to 0.1 µM | 0.101 to 0.5 µM | – | – | – | – |
| CC12CC=CCC1(C)C(=O)N(CC1CCN(CCc3ccccc3)CC1)C2=O (centres unmarked) [Example 66] | 0.031 to 0.1 µM | > 0.5 µM | – | – | – | – |
| O=C1C2C3C=CC(C4CC34)C2C(=O)N1CC1CCN(CCc2ccccc2)CC1 (centres unmarked) [Example 69] | 0.001 to 0.03 µM | > 0.5 µM | – | – | – | – |
| CC1C2=C(CCCC2)C(=O)N1CC1CCN(CCc2ccccc2)CC1 (centres unmarked) [Example 70, 2,3,4,5,6,7, -hexahydro-2-[[1-(2-phenylethyl)-4-piperidinyl]methyl]-3-methyl-1H-isoindol-1-one] | 0.101 to 0.5 µM | 0.101 to 0.5 µM | – | – | – | – |
| O=C1[C@H]2CCCC[C@H]2C(=O)N1CC1(O)CCN(CCc2ccccc2)CC1 [Example 74] | 0.101 to 0.5 µM | > 0.5 µM | – | – | – | – |
| CCCC1C2c3ccccc3C=CC2C(=O)N1CCC1CCN(CCc2ccccc2)CC1 (centres unmarked) [Example 86] | 0.101 to 0.5 µM | 0.101 to 0.5 µM | – | – | – | – |
| O=C1c2ccccc2C(=O)N1CCCC1=CCN(CCc2ccccc2)CC1 [Example 116] | 0.031 to 0.1 µM | > 0.5 µM | – | – | – | – |
| O=C1[C@H]2CC=CC[C@H]2C(=O)N1CCCC1=CCN(CCc2ccccc2)CC1 [Example 118] | 0.001 to 0.03 µM | > 0.5 µM | – | – | – | – |
| O=C1[C@H]2CCCC[C@H]2C(=O)N1CC1(c2ccccc2)CCN(CCc2ccccc2)CC1 [Example 122, 2-[1-(2-Phenylethyl)-4-phenyl-4-piperidine-methyl]-cis-3a; 4,5,6,7,7a-hexalydro-1H-isoindole-1,3(2H)-dione] | – | > 0.5 µM | – | – | 0.001 to 0.03 µM | – |
| O=C1[C@H]2CCCC[C@H]2C(=O)N1CC1(c2cccc(Cl)c2)CCN(CCc2ccccc2)CC1 [Example 123] | – | > 0.5 µM | – | – | 0.001 to 0.03 µM | – |
| O=C1[C@H]2CCCC[C@H]2C(=O)N1CC1(c2ccc(Cl)cc2)CCN(CCc2ccccc2)CC1 [Example 124] | – | > 0.5 µM | – | – | 0.001 to 0.03 µM | – |
| COc1cccc(C2(CN3C(=O)C4CCCCC4C3=O)CCN(CCc3ccccc3)CC2)c1 (centres unmarked) [Example 125] | – | – | – | – | 0.031 to 0.1 µM | > 0.5 µM |
| O=C1C2CCCCC2C(=O)N1CC1(c2cccc(C(F)(F)F)c2)CCN(CCc2ccccc2)CC1 (centres unmarked) [Example 126] | – | > 0.5 µM | – | – | 0.001 to 0.03 µM | – |
| O=C1[C@H]2CCCC[C@H]2C(=O)N1CC1(c2cccc3ccccc23)CCN(CCc2ccccc2)CC1 [Example 127] | – | > 0.5 µM | – | – | 0.031 to 0.1 µM | – |
| O=C1[C@H]2CCCC[C@H]2C(=O)N1CC1(c2ccsc2)CCN(CCc2ccccc2)CC1 [Example 128] | – | > 0.5 µM | – | – | 0.001 to 0.03 µM | – |
| O=C1[C@H]2CCCC[C@H]2C(=O)N1CC1(c2csc3ccccc23)CCN(CCc2ccccc2)CC1 [Example 129] | – | 0.101 to 0.5 µM | – | – | 0.001 to 0.03 µM | – |
| O=C1c2ccccc2C(=O)N1CC1(c2cccc(Cl)c2)CCN(CCc2ccccc2)CC1 [Example 130] | – | > 0.5 µM | – | – | 0.001 to 0.03 µM | – |

Second part, led by results:

| Ki (Sigma receptor; [2]) | Ki (Dopamine (D-2) receptor; [3]) | SMILES | ED50 [1] | inhibiting the isolation-induced aggressive behavior [1] | Ki (Sigma receptor) | Ki (Dopamine (D-2) receptor) |
| --- | --- | --- | --- | --- | --- | --- |
| 0.031 to 0.1 µM | > 0.5 µM | O=C1C2=C(CCCC2)CN1CC1CCN(CCc2ccccc2)CC1 [Example 6, 2,3,4,5,6,7-hexahydro-2-[[1-(2-phenylethyl)-4-piperidinyl]methyl]-1H-isoindol-1-one] | 21 to 70 mg/kg | potent activities | – | – |
| 0.001 to 0.03 µM | > 0.5 µM | O=C1[C@H]2CCCC[C@H]2C(=O)N1CC1CCN(CCC2CCCCC2)CC1 [Example 17] | – | potent activities | – | – |
| 0.001 to 0.03 µM | > 0.5 µM | CC1CC[C@@H]2C(=O)N(CC3CCN(CCc4ccccc4)CC3)C(=O)[C@@H]2C1 (some centres unmarked) [Example 23] | 21 to 70 mg/kg | – | – | – |
| 0.001 to 0.03 µM | > 0.5 µM | O=C1c2ccccc2C(=O)N1CCC1CCN(CCc2ccccc2)CC1 [Example 39] | 21 to 70 mg/kg | – | – | – |
| 0.001 to 0.03 µM | > 0.5 µM | O=C1C2C3C=CC(CCC3)C2C(=O)N1CC1CCN(CCc2ccccc2)CC1 (centres unmarked) [Example 62] | – | – | – | – |
| 0.031 to 0.1 µM | > 0.5 µM | CC12CCCCC1C(=O)N(CC1CCN(CCc3ccccc3)CC1)C2=O (centres unmarked) [Example 64] | – | – | – | – |
| 0.101 to 0.5 µM | > 0.5 µM | CC12CC=CCC1C(=O)N(CC1CCN(CCc3ccccc3)CC1)C2=O (centres unmarked) [Example 67] | – | – | – | – |
| 0.101 to 0.5 µM | > 0.5 µM | O=C1C2C(c3ccccc3)CCC(c3ccccc3)C2C(=O)N1CC1CCN(CCc2ccccc2)CC1 (centres unmarked) [Example 68] | – | – | – | – |
| 0.001 to 0.03 µM | > 0.5 µM | O=C1C2=C(CN1CC1CCN(CCc3ccccc3)CC1)C1CCCC2CC1 (centres unmarked) [Example 71] | – | – | – | – |
| 0.001 to 0.03 µM | 0.101 to 0.5 µM | O=C1C2C3CCC(C4CCC43)C2C(=O)N1CC1CCN(CCc2ccccc2)CC1 (centres unmarked) [Example 72] | – | – | – | – |
| 0.031 to 0.1 µM | > 0.5 µM | O=C1C2C3CCCC(CC3)C2C(O)N1CC1CCN(CCc2ccccc2)CC1 (centres unmarked) [Example 73] | – | – | – | – |
| 0.001 to 0.03 µM | > 0.5 µM | O=C1C2C3C=CC(CCC3)C2C(=O)N1CC1(O)CCN(CCc2ccccc2)CC1 (centres unmarked) [Example 75] | – | – | – | – |
| 0.031 to 0.1 µM | > 0.5 µM | O=C1C2C3C=CC(C4C=CC43)C2C(=O)N1CC1(O)CCN(CCc2ccccc2)CC1 (centres unmarked) [Example 76] | – | – | – | – |
| 0.031 to 0.1 µM | > 0.5 µM | O=C1C2C3C=CC(C4CCC34)C2C(=O)N1CC1(O)CCN(CCc2ccccc2)CC1 (centres unmarked) [Example 77] | – | – | – | – |
| 0.001 to 0.03 µM | > 0.5 µM | O=C1c2ccccc2C(=O)N1CCC1=CCN(CCc2ccccc2)CC1 [Example 115] | – | – | – | – |
| 0.001 to 0.03 µM | > 0.5 µM | O=C1[C@H]2CC=CC[C@H]2C(=O)N1CC1=CCN(CCc2ccccc2)CC1 [Example 117] | – | – | – | – |
| 0.001 to 0.03 µM | > 0.5 µM | O=C1[C@H]2CCCC[C@H]2C(=O)N1CC1=CCN(CCc2ccccc2)CC1 [Example 119] | – | – | – | – |
| 0.001 to 0.03 µM | > 0.5 µM | O=C1[C@H]2CCCC[C@H]2C(=O)N1CCC1=CCN(CCc2ccccc2)CC1 [Example 120] | – | – | – | – |
| 0.001 to 0.03 µM | > 0.5 µM | O=C1[C@H]2CCCC[C@H]2C(=O)N1CCCC1=CCN(CCc2ccccc2)CC1 [Example 121] | – | – | – | – |
| 0.001 to 0.03 µM | > 0.5 µM | CC1(CN2C(=O)[C@H]3CCCC[C@H]3C2=O)CCN(CCc2ccccc2)CC1 [Example 132, 2-[1-(2-Phenylethyl)-4-(4-methyl)piperidinylmethyl]-cis-3a, 4,5,6,7,7a-hexahydro-1H-isoindole-1,3(2H)-dione] | – | – | – | – |
| 0.001 to 0.03 µM | > 0.5 µM | CC1(CN2C(=O)[C@H]3CCCC[C@H]3C2=O)CCN(CCC2CCCCC2)CC1 [Example 133] | – | – | – | – |
